The target in this experiment is T1, Acetylcholinesterase (AChE) (Mus musculus, UniProt P21836).
T1 construct: The assay medium consisted of brain lysate (5 mg/mL) containing different concentrations of testing drugs; from tissue; host or cells: mouse brain lysate
The experiment can be described thus: biochemical. Particulars: for AChE Inhibitory Activity: ranking by IC50, molar concentration (alkaloids). Format: biochemical. On the procedure:
The combinations of fangchinoline–coptisine/berberine at concentration ratios of 1:5, 1:2, 1:1, and 2:1 were individually prepared by mixing appropriate volumes of fangchinoline and coptisine or berberine stock solutions. The solutions of fangchinoline–coptisine combinations (with initial system concentrations 4:20, 10:20, 20:20, and 20:10 μM, respectively) were diluted into seven concentrations by DMSO, respectively. The solutions of fangchinoline–berberine combinations (with initial system concentrations 2:10, 5:10, 10:10, and 20:10 μM, respectively) were diluted into seven concentrations by DMSO, respectively. The stocks of tetrandrine, epiberberine, and palmatine were taken appropriately and diluted into six concentrations (with initial system concentrations 30, 100, and 50 μM, respectively) by DMSO, respectively.
The mouse brain lysate (0.1 g/mL, containing 10 mM HEPES (pH 7.4), 1 mM EDTA, 1 mM EGTA, 150 mM NaCl, 0.5% triton X-100, 10 μg/mL leupeptin, 10 μg/mL aprotinin, 10 μg/mL pepstatin, and 50 μg/mL benzamidine HCL) was prepared. AChE enzymatic activity was assayed by 96-well microtiter plate with a final volume of 200 μL, according to the Ellman method. […] Briefly, the mixture of brain lysate containing the testing drugs, Na2HPO4 buffer, and iso-OMPA solution were incubated at 37 °C for 10 min, and then ATCh and DNTB solutions were added. The reaction solution was incubated at 37 °C for 30 min, and AChE activity was determined by measuring the absorbance at 405 nm. To eliminate the drug–solvent influence on AChE enzymatic activity, the concentration of DMSO was controlled at 0.5% in the 200 μL reaction volume. In order to correct for color interference at 405 nm, a background color contrast group without brain lysate and a drug color contrast group without brain lysate were set, respectively. […] Tacrine was used as a positive control. Protein concentrations were measured with a kit from Bio-Rad (Hercules, CA, USA).

The structures appear in SMILES notation. Read-outs that look alike come from different tables or passages of the source.

T1 sequence (P21836 32-614): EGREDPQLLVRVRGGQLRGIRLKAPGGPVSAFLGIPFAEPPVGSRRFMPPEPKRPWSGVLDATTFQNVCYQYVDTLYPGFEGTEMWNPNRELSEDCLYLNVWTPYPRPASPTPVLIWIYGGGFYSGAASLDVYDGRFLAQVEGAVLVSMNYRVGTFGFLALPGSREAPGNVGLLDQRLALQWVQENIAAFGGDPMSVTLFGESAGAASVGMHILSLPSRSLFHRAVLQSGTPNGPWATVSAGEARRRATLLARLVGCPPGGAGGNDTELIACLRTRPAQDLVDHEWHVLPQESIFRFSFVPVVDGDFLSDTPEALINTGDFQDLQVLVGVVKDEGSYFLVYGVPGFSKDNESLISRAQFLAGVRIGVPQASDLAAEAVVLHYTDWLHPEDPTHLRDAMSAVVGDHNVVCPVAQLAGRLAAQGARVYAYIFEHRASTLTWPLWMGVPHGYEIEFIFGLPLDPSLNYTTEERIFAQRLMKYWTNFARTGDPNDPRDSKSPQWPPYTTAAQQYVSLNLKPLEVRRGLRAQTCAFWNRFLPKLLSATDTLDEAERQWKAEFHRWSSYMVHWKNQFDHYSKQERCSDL

By IC50 is commonly meant the concentration needed to halve the response being measured. Consider `COc1ccc2cc3[n+](cc2c1OC)CCc1cc2c(cc1-3)OCO2` [Berberine], for which the IC50 amounted to 2.33 ± 0.16 µM; the “AChE Inhibitory Activity” value is “+++ (for molar concentration, “+++”, “++”, and “+” represent IC50 values of 1–5, 5–10 and 10–20 μM, respectively)”.
`c1c2c(cc3c1OCO3)-c1cc3ccc4c(c3c[n+]1CC2)OCO4` [Coptisine]: the concentration for half-maximal inhibition (IC50) amounted to 13.5 ± 1.48 µM; the “AChE Inhibitory Activity” value was “+ (for molar concentration, “+++”, “++”, and “+” represent IC50 values of 1–5, 5–10 and 10–20 μM, respectively)”.
Regarding `COc1cc2c(cc1OC)-c1cc3ccc4c(c3c[n+]1CC2)OCO4` [Epiberberine], the “AChE Inhibitory Activity” value was “+ (for molar concentration, “+++”, “++”, and “+” represent IC50 values of 1–5, 5–10 and 10–20 μM, respectively)”. For the same compound, under “single alkaloids, mouse brain lysate, Mean ± SEM, n = 3, read-out: IC50”, the IC50 came to 18.7 ± 0.83 µM.
In the case of `COc1ccc2cc1Oc1ccc(cc1)C[C@H]1c3cc(c(OC)cc3CCN1C)Oc1c(O)c(OC)cc3c1[C@H](C2)N(C)CC3` [Fangchinoline], the IC50 is 2.17 ± 0.05 µM; the “AChE Inhibitory Activity” value is “+++ (for molar concentration, “+++”, “++”, and “+” represent IC50 values of 1–5, 5–10 and 10–20 μM, respectively)”.
As for `COc1cc2c(cc1OC)-c1cc3ccc(OC)c(OC)c3c[n+]1CC2` [Palmatine], the IC50 came to 6.52 ± 0.84 µM; the “AChE Inhibitory Activity” value is “++ (for molar concentration, “+++”, “++”, and “+” represent IC50 values of 1–5, 5–10 and 10–20 μM, respectively)”.
`COc1ccc2cc1Oc1ccc(cc1)C[C@H]1c3cc(c(OC)cc3CCN1C)Oc1c(OC)c(OC)cc3c1[C@H](C2)N(C)CC3` [Tetrandrine]: the “AChE Inhibitory Activity” value is on record as “−”. Also, the AChE inhibitory potency entry (mouse brain lysate, result in words) was “did not show AChE inhibitory potency”.
